# Experiments:
# CRAF = molecular target: T1, CRAF (Homo sapiens, UniProt P04049); assay: CRAF-IP kinase assay after […] h cell treatment; assay type: cell-based
# T1 construct: gene RAF1; endogenous CRAF immunoprecipitated from NCI-H1666 and NCI-H2405 cells
# BRAF = molecular target: T2, BRAF (Homo sapiens, UniProt P15056, V600E); assay: BRAF-IP kinase assay after […] h cell treatment; assay type: cell-based
# T2 construct: endogenous BRAF immunoprecipitated from HCC364 cells
# T2 sequence (P15056 2-766 V600E): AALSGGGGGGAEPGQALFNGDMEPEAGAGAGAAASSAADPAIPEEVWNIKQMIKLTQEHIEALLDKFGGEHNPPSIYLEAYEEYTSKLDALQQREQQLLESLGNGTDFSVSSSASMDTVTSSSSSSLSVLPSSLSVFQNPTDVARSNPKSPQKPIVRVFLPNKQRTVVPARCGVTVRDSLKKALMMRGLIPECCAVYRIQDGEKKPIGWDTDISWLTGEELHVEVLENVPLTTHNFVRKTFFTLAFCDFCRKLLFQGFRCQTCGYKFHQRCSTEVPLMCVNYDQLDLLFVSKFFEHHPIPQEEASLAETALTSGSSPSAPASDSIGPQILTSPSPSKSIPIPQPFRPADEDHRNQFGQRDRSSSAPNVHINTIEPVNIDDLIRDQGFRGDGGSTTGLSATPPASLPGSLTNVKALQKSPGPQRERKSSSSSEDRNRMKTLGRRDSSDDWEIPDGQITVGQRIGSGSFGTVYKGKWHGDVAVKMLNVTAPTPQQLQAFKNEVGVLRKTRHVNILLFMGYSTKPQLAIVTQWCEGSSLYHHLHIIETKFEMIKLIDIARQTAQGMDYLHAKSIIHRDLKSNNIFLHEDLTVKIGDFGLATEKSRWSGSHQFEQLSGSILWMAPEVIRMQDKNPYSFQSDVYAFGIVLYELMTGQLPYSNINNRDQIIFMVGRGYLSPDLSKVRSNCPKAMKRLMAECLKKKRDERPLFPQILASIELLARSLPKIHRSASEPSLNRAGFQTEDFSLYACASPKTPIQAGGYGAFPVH
# T1 sequence (P04049 whole entry): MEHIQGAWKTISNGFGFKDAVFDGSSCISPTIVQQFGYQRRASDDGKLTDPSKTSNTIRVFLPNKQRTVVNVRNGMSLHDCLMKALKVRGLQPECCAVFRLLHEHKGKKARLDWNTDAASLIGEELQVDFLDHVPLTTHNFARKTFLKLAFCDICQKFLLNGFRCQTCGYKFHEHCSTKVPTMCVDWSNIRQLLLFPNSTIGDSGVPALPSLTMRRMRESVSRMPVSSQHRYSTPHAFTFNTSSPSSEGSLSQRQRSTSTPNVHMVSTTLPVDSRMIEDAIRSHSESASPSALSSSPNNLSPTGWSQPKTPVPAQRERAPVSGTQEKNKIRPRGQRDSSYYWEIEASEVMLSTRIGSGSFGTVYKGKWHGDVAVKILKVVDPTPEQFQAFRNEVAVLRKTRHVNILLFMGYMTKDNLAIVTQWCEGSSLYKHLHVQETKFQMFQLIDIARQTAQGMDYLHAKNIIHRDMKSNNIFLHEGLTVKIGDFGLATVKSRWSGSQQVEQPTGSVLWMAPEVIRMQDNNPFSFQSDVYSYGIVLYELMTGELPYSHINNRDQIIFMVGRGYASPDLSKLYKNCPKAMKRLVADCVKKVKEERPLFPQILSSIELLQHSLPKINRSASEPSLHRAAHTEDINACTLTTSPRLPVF
smiles,measurement,setting,value
Cc1ccc2c(Nc3cccc(Cl)c3F)nccc2c1NC(=O)c1csc2c(N)ncnc12 [belvarafenib],CRAF-IP kinase assay after 4 h cell treatment,CRAF,baseline CRAF kinase activity was strongly detected in NCI-H1666 cells and was significantly inhibited by exarafenib and belvarafenib
same,BRAF-IP kinase assay after 4 h cell treatment,BRAF,Exarafenib and belvarafenib exhibit potent inhibition of BRAF kinase activity in Class I and II BRAF mutations

# Reference: article PMC12992618 (Nature Communications, 2026)
